# Patent US10081623B2, “Diamide macrocycles that are FXIa inhibitors” (BRISTOL-MYERS SQUIBB COMPANY, priority 2014, dated 2018)
# Target: purified human Factor XIa (Homo sapiens (Human), UniProt P03951)
# Assay: Factor XIa assay (chromogenic substrate S-2366 hydrolysis, Ki)
# Type: biochemical
# Conditions: measured at 37° C.
# Procedure: The effectiveness of compounds of the present invention as inhibitors of the coagulation Factors XIa, VIIa, IXa, Xa, XIIa, plasma kallikrein or thrombin, can be determined using a relevant purified serine protease, respectively, and an appropriate synthetic substrate. The rate of hydrolysis of the chromogenic or fluorogenic substrate by the relevant serine protease was measured both in the absence and presence of compounds of the present invention. […] A decrease in the rate of absorbance or fluorescence change in the presence of inhibitor is indicative of enzyme inhibition. Such methods are known to one skilled in the art. The results of this assay are expressed as the inhibitory constant, Ki.
# Factor XIa determinations were made in 50 mM HEPES buffer at pH 7.4 containing 145 mM NaCl, 5 mM KCl, and 0.1% PEG 8000 (polyethylene glycol; JT Baker or Fisher Scientific). Determinations were made using purified human Factor XIa at a final concentration of 25-200 pM (Haematologic Technologies) and the synthetic substrate S-2366 (pyroGlu-Pro-Arg-pNA; CHROMOGENIX® or AnaSpec) at a concentration of 0.0002-0.001 M.
# The Michaelis constant, Km, for substrate hydrolysis by each protease, was determined at 25° C. or 37° C. in the absence of inhibitor. Values of Ki were determined by allowing the protease to react with the substrate in the presence of the inhibitor. […] The following relationships were used to calculate Ki values: (Vmax*S)/(Km+S); (vo−vs)/vs=I/(Ki(1+S/Km)) for a competitive inhibitor with one binding site; or vs/vo=A+(B−A)/(1+(I/IC50)^n); and Ki=IC50/(1+S/Km) for a competitive inhibitor where: […]
# purified human Factor XIa, sequence (P03951 388-625): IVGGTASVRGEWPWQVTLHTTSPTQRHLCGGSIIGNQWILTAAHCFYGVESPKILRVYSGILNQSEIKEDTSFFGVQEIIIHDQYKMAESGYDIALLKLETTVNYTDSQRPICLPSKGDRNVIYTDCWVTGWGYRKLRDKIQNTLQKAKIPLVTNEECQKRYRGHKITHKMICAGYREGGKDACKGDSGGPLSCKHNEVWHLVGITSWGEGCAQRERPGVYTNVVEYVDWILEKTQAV
# purified human Factor XIa, sequence (P03951 19-387 partner): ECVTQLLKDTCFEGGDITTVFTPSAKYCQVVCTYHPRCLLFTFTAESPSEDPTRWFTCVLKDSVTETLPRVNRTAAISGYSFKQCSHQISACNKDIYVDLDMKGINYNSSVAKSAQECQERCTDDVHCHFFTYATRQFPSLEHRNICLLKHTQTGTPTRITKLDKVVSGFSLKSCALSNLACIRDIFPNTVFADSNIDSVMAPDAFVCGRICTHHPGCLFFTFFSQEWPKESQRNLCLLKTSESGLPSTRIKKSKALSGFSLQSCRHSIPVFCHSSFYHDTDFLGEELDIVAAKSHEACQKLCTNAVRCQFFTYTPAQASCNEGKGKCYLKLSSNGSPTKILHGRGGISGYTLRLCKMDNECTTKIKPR
row,Compound,Ki [nM]
1,"N=C(N)N1CCC(CNC(=O)C2CC=CCCC(=O)Nc3ccccc3C(=O)N2)CC1 (racemic) [Example 29, (E/Z)-(±)-N-[(1-Carbamimidoylpiperidin-4-yl)methyl]-2,10-dioxo-1,2,3,4,7,8,9,10-octahydro-1,9-benzodiazacyclododecine-8-carboxamide]",1400
2,"COC(=O)Nc1ccc2c(c1)NC(=O)CCCCCC(C(=O)NC1CCN(C(=N)N)CC1)NC2=O (racemic) [Example 4, (±)-Methyl N-{8-[(1-carbamimidoylpiperidin-4-yl)carbamoyl]-2,10-dioxo-1,2,3,4,5,6,7,8,9,10-decahydro-1,9-benzodiazacyclododecin-13-yl}carbamate]",1490
3,"N=C(N)N1CCC(NC(=O)C2C/C=C/CCC(=O)Nc3ccccc3C(=O)N2)CC1 (racemic) [Example 31, (E)-(±)-N-(1-Carbamimidoylpiperidin-4-yl)-2,10-dioxo-1,2,3,4,7,8,9,10-octahydro-1,9-benzodiazacyclododecine-8-carboxamide]",811
4,"COC(=O)Nc1ccc2c(c1)NC(=O)CCCCCC(C(=O)NCCC1CCN(C(=N)N)CC1)NC2=O (racemic) [Example 6, (±)-Methyl N-(8-{[2-(1-carbamimidoylpiperidin-4-yl)ethyl]carbamoyl}-2,10-dioxo-1,2,3,4,5,6,7,8,9,10-decahydro-1,9-benzodiazacyclododecin-13-yl)carbamate]",627
5,"COC(=O)Nc1ccc2c(c1)NC(=O)CCCCCC(C(=O)N1CCCC(c3cccc(OC)c3)C1)NC2=O (racemic) [Example 10, (±)-Methyl N-{8-[3-(3-methoxyphenyl)piperidine-1-carbonyl]-2,10-dioxo-1,2,3,4,5,6,7,8,9,10-decahydro-1,9-benzodiazacyclododecin-13-yl}carbamate]",2620
6,"COC(=O)Nc1ccc2c(c1)NC(=O)CCCCCC(C(=O)NC1Cc3ccccc3NC1=O)NC2=O (racemic) [Example 7, (±)-Methyl N-{2,10-dioxo-8-[(2-oxo-1,2,3,4-tetrahydroquinolin-3-yl)carbamoyl]-1,2,3,4,5,6,7,8,9,10-decahydro-1,9-benzodiazacyclododecin-13-yl}carbamate]",708
7,"COC(=O)Nc1ccc2c(c1)NC(=O)CCCCCC(C(=O)NCCc1cc(Cl)ccc1-n1cnnn1)NC2=O (single isomer, unassigned) [Example 2, Methyl N-[8-({2-[5-chloro-2-(1H-1,2,3,4-tetrazol-1-yl)phenyl]ethyl}carbamoyl)-2,10-dioxo-1,2,3,4,5,6,7,8,9,10-decahydro-1,9-benzodiazacyclododecin-13-yl]carbamate]",2180
8,"COC(=O)Nc1ccc2c(c1)NC(=O)CCCCCC(C(=O)NCC1CCN(C(=N)N)CC1)NC2=O (racemic) [Example 5, (±)-Methyl N-(8-{[(1-carbamimidoylpiperidin-4-yl)methyl]carbamoyl}-2,10-dioxo-1,2,3,4,5,6,7,8,9,10-decahydro-1,9-benzodiazacyclododecin-13-yl)carbamate]",825
9,"COC(=O)Nc1ccc2c(c1)NC(=O)CC/C=C\CC(C(=O)NCCc1cc(Cl)ccc1-n1cnnn1)NC2=O (single isomer, unassigned) [Example 23, (Z)-Methyl N-[8-({2-[5-chloro-2-(1H-1,2,3,4-tetrazol-1-yl)phenyl]ethyl}carbamoyl)-2,10-dioxo-1,2,3,4,7,8,9,10-octahydro-1,9-benzodiazacyclododecin-13-yl]carbamate]",157
10,"N=C(N)N1CCC(NC(=O)C2C/C=C\CCC(=O)Nc3ccccc3C(=O)N2)CC1 (racemic) [Example 30, (Z)-(±)-N-(1-Carbamimidoylpiperidin-4-yl)-2,10-dioxo-1,2,3,4,7,8,9,10-octahydro-1,9-benzodiazacyclododecine-8-carboxamide]",2200
11,"COC(=O)Nc1ccc2c(c1)NC(=O)CCCCCC(C(=O)NCc1csc3ccc(Cl)cc13)NC2=O (racemic) [Example 8, (±)-Methyl N-(8-{[(5-chloro-1-benzothiophen-3-yl)methyl]carbamoyl}-2,10-dioxo-1,2,3,4,5,6,7,8,9,10-decahydro-1,9-benzodiazacyclododecin-13-yl)carbamate]",1340

# Further lines, results first:
row,Ki [nM],Compound
1,< 5,"COC(=O)Nc1ccc2c(c1)NC(=O)CC/C=C/CC(C(=O)NCCc1cc(Cl)ccc1-n1cnnn1)NC2=O (single isomer, unassigned) [Example 25, (E)-Methyl N-[8-({2-[5-chloro-2-(1H-1,2,3,4-tetrazol-1-yl)phenyl]ethyl}carbamoyl)-2,10-dioxo-1,2,3,4,7,8,9,10-octahydro-1,9-benzodiazacyclododecin-13-yl]carbamate]"
2,64.1,"COC(=O)Nc1ccc2c(c1)NC(=O)CC/C=C/CC(C(=O)NCCc1cc(Cl)ccc1-n1cnnn1)NC2=O (single isomer, unassigned) [Example 26, (E)-Methyl N-[8-({2-[5-chloro-2-(1H-1,2,3,4-tetrazol-1-yl)phenyl]ethyl}carbamoyl)-2,10-dioxo-1,2,3,4,7,8,9,10-octahydro-1,9-benzodiazacyclododecin-13-yl]carbamate]"
3,41.9,"COC(=O)Nc1ccc2c(c1)NC(=O)CCCCCC(C(=O)NCCc1cc(Cl)ccc1-n1cnnn1)NC2=O (single isomer, unassigned) [Example 3, Methyl N-[8-({2-[5-chloro-2-(1H-1,2,3,4-tetrazol-1-yl)phenyl]ethyl}carbamoyl)-2,10-dioxo-1,2,3,4,5,6,7,8,9,10-decahydro-1,9-benzodiazacyclododecin-13-yl]carbamate]"
4,< 5,"COC(=O)Nc1ccc2c(c1)NC(=O)CCC=CCC(C(=O)NCCc1cc(Cl)ccc1-n1cnnn1)NC2=O (racemic) [Example 22, (E/Z)-(±)-Methyl N-[8-({2-[5-chloro-2-(1H-1,2,3,4-tetrazol-1-yl)phenyl]ethyl}carbamoyl)-2,10-dioxo-1,2,3,4,7,8,9,10-octahydro-1,9-benzodiazacyclododecin-13-yl]carbamate]"
5,39.1,"O=C1CCC=CCC(C(=O)NCCc2cc(Cl)ccc2-n2cnnn2)NC(=O)c2ccccc2N1 (racemic) [Example 27, (E/Z)-(±)-N-{2-[5-Chloro-2-(1H-1,2,3,4-tetrazol-1-yl)phenyl]ethyl}-2,10-dioxo-1,2,3,4,7,8,9,10-octahydro-1,9-benzodiazacyclododecine-8-carboxamide]"
6,17.9,"COC(=O)Nc1ccc2c(c1)NC(=O)CCCCCC(C(=O)NCCc1cc(Cl)ccc1-n1cnnn1)NC2=O (racemic) [Example 1, (±)-Methyl N-[8-({2-[5-chloro-2-(1H-1,2,3,4-tetrazol-1-yl)phenyl]ethyl}carbamoyl)-2,10-dioxo-1,2,3,4,5,6,7,8,9,10-decahydro-1,9-benzodiazacyclododecin-13-yl]carbamate]"
7,153,"COC(=O)Nc1ccc2c(c1)NC(=O)CC/C=C\CC(C(=O)NCCc1cc(Cl)ccc1-n1cnnn1)NC2=O (single isomer, unassigned) [Example 24, (Z)-Methyl N-[8-({2-[5-chloro-2-(1H-1,2,3,4-tetrazol-1-yl)phenyl]ethyl}carbamoyl)-2,10-dioxo-1,2,3,4,7,8,9,10-octahydro-1,9-benzodiazacyclododecin-13-yl]carbamate]"
